Data as given in patent US11214803B2, “Modulators of YAP1 expression” (Ionis Pharmaceuticals, Inc., priority 2019, dated 2022).
Strand notation (5' to 3'): a small letter for the sugar, then the base; units joined by * are phosphorothioate-linked, units joined directly phosphodiester-linked; [ ] holds rarer units or linkages, { } end groups; capitals alone tell only the bases. k = constrained ethyl (cEt); [5mC] = 5-methylcytosine; d = 2'-deoxy (DNA)

Test system: Yap1 mRNA
Assay: Dose-dependent inhibition of human Yap1 in A-431 cells (Example 7, 10,000 cells per well, RTS36584)
Type: cell-based
Details: free uptake
Procedure: Modified oligonucleotides described in the studies above were tested at various doses in A-431 cells. Cultured A-431 cells at a density of 10,000 cells per well were treated using free uptake with modified oligonucleotides diluted to concentrations described in the tables below. After approximately 48 hours, Yap1 mRNA levels were measured as previously described using the Human Yap1 primer-probe set RTS36584. Yap1 mRNA levels were normalized to total RNA content, as measured by RIBOGREEN®. Results are presented in the tables below as percent control of the amount of Yap1 mRNA relative to untreated control cells (% UTC). IC50s were calculated using a linear regression on a log/linear plot of the data in excel.

[1] = Table 60, 15.6 nM, A-431 cells 10,000 cells per well, 48 hours
[2] = Table 60, 62.5 nM, A-431 cells 10,000 cells per well, 48 hours
[3] = Table 60, 4000.00 nM, A-431 cells 10,000 cells per well, 48 hours
[4] = Table 60, A-431 cells 10,000 cells per well
[5] = 15.6 nM, A-431 cells, 10,000 cells per well, approximately 48 hours
[6] = 62.5 nM, A-431 cells, 10,000 cells per well, approximately 48 hours
[7] = 4000.00 nM, A-431 cells, 10,000 cells per well, approximately 48 hours
[8] = A-431 cells, approximately 48 hours, linear regression on log/linear plot
[9] = Table 57, 15.6 nM, A-431 cells 10,000 cells per well, 48 hours
[10] = Table 57, 62.5 nM, A-431 cells 10,000 cells per well, 48 hours
[11] = Table 57, 4000.00 nM, A-431 cells 10,000 cells per well, 48 hours
[12] = Table 57, A-431 cells 10,000 cells per well
[13] = Table 59, 15.6 nM, A-431 cells 10,000 cells per well, 48 hours
[14] = Table 59, 62.5 nM, A-431 cells 10,000 cells per well, 48 hours
[15] = Table 59, 4000.00 nM, A-431 cells 10,000 cells per well, 48 hours
[16] = Table 59, A-431 cells 10,000 cells per well

958543 (kA*k[5mC]*k[5mC]*dT*dT*dA*dT*dA*dG*dT*dA*dT*dT*k[5mC]*kT*kA; antisense) [compound 958543]
Yap1 mRNA, % UTC [1]: 84 % UTC
Yap1 mRNA, % UTC [2]: 63 % UTC
Yap1 mRNA, % UTC [3]: 18 % UTC
IC50 [4]: 100 nM

958650 (kT*k[5mC]*kA*dA*dT*dT*dG*dA*dG*dT*d[5mC]*dT*dG*k[5mC]*kT*kA; antisense) [compound 958650]
Yap1 mRNA, % UTC [5]: 82 % UTC
Yap1 mRNA, % UTC [6]: 51 % UTC
Yap1 mRNA, % UTC [7]: 7 % UTC
IC50 [8]: 100 nM

958451 (antisense k[5mC]*kA*k[5mC]*dG*dA*dT*d[5mC]*dT*dG*dA*dT*dG*d[5mC]*k[5mC]*k[5mC]*kG) [compound 958451]
Yap1 mRNA, % UTC [9]: 98 % UTC
Yap1 mRNA, % UTC [10]: 74 % UTC
Yap1 mRNA, % UTC [11]: 23 % UTC
IC50 [12]: 200 nM

958507 (kG*kA*kG*d[5mC]*dA*dG*dA*dT*dA*dA*dT*d[5mC]*dG*kA*kG*kA; antisense) [compound 958507]
Yap1 mRNA, % UTC [13]: 93 % UTC
Yap1 mRNA, % UTC [14]: 69 % UTC
Yap1 mRNA, % UTC [15]: 19 % UTC
IC50 [16]: 200 nM

958785 (kG*k[5mC]*kA*dA*dT*d[5mC]*d[5mC]*dA*d[5mC]*dA*dA*dT*dT*k[5mC]*k[5mC]*kA; antisense) [compound 958785]
Yap1 mRNA, % UTC [5]: 78 % UTC
Yap1 mRNA, % UTC [6]: 52 % UTC
Yap1 mRNA, % UTC [7]: 6 % UTC
IC50 [8]: 100 nM

958796 (kA*kT*kT*dA*dT*dA*dT*dG*dG*dT*dT*dG*d[5mC]*kT*kT*k[5mC]; antisense) [compound 958796]
Yap1 mRNA, % UTC (Table 56, 15.6 nM, A-431 cells 10,000 cells per well, 48 hours): 91 % UTC
Yap1 mRNA, % UTC (Table 56, 62.5 nM, A-431 cells 10,000 cells per well, 48 hours): 62 % UTC
Yap1 mRNA, % UTC (Table 56, 4000.00 nM, A-431 cells 10,000 cells per well, 48 hours): 15 % UTC
IC50 (Table 56, A-431 cells 10,000 cells per well): 130 nM

958473 (kG*kT*k[5mC]*dT*d[5mC]*d[5mC]*dT*dT*dA*dG*dA*dT*d[5mC]*k[5mC]*kT*kT; antisense) [compound 958473]
Yap1 mRNA, % UTC [1]: 85 % UTC
Yap1 mRNA, % UTC [2]: 60 % UTC
Yap1 mRNA, % UTC [3]: 17 % UTC
IC50 [4]: 100 nM

958555 (kG*k[5mC]*kT*dT*dA*dT*dA*dT*dT*dG*dA*dA*dG*kA*kG*kT; antisense) [compound 958555]
Yap1 mRNA, % UTC [5]: 99 % UTC
Yap1 mRNA, % UTC [6]: 73 % UTC
Yap1 mRNA, % UTC [7]: 13 % UTC
IC50 [8]: 200 nM

958580 (kA*kT*kA*dA*dT*d[5mC]*dT*dT*dA*dA*dT*d[5mC]*dT*kG*kT*kG; antisense) [compound 958580]
Yap1 mRNA, % UTC [5]: 95 % UTC
Yap1 mRNA, % UTC [6]: 59 % UTC
Yap1 mRNA, % UTC [7]: 9 % UTC
IC50 [8]: 100 nM

958572 (kA*kT*kT*dA*dT*dA*dG*dG*d[5mC]*dA*d[5mC]*dT*d[5mC]*k[5mC]*kT*kT; antisense) [compound 958572]
Yap1 mRNA, % UTC [13]: 83 % UTC
Yap1 mRNA, % UTC [14]: 77 % UTC
Yap1 mRNA, % UTC [15]: 22 % UTC
IC50 [16]: 200 nM

958506 (kG*k[5mC]*kA*dG*dA*dT*dA*dA*dT*d[5mC]*dG*dA*dG*kA*kT*kT; antisense) [compound 958506]
Yap1 mRNA, % UTC [9]: 80 % UTC
Yap1 mRNA, % UTC [10]: 55 % UTC
Yap1 mRNA, % UTC [11]: 10 % UTC
IC50 [12]: 100 nM

958491 (kA*k[5mC]*kT*dA*dA*dA*dT*dG*d[5mC]*dT*dG*dT*dG*kA*k[5mC]*kA; antisense) [compound 958491]
Yap1 mRNA, % UTC [9]: 94 % UTC
Yap1 mRNA, % UTC [10]: 65 % UTC
Yap1 mRNA, % UTC [11]: 10 % UTC
IC50 [12]: 100 nM

958525 (kA*kT*kG*dA*dA*dG*dG*dT*dA*dA*dA*d[5mC]*d[5mC]*kA*k[5mC]*kT; antisense) [compound 958525]
Yap1 mRNA, % UTC [5]: 94 % UTC
Yap1 mRNA, % UTC [6]: 57 % UTC
Yap1 mRNA, % UTC [7]: 8 % UTC
IC50 [8]: 100 nM

958569 (kA*kG*k[5mC]*d[5mC]*dT*dT*dA*dG*dA*dG*dT*d[5mC]*dA*kA*kT*kT; antisense) [compound 958569]
Yap1 mRNA, % UTC (Table 61, 15.6 nM, A-431 cells 10,000 cells per well, 48 hours): 82 % UTC
Yap1 mRNA, % UTC (Table 61, 62.5 nM, A-431 cells 10,000 cells per well, 48 hours): 49 % UTC
Yap1 mRNA, % UTC (Table 61, 4000.00 nM, A-431 cells 10,000 cells per well, 48 hours): 7 % UTC
IC50 (Table 61, A-431 cells 10,000 cells per well): 100 nM
